Assay results published in patent US7244727B2, “Fused bicyclic nitrogen-containing heterocycles” (Japan Tobacco Inc., priority 2002, dated 2007).

How the values were obtained:
[1] = biological target: T1, human DGAT1 (Homo sapiens, UniProt O75907); assay: DGAT Scintillation Proximity Assay (SPA) with membranes of insect cells expressing human flagtag DGAT1; assay type: biochemical; details: read-out: hDGAT1 IC50
T1 construct: made in house; host or cells: insect cells (sf9, sf21 or High Five) infected with baculovirus; total cell membranes
T1 sequence (O75907 1-488): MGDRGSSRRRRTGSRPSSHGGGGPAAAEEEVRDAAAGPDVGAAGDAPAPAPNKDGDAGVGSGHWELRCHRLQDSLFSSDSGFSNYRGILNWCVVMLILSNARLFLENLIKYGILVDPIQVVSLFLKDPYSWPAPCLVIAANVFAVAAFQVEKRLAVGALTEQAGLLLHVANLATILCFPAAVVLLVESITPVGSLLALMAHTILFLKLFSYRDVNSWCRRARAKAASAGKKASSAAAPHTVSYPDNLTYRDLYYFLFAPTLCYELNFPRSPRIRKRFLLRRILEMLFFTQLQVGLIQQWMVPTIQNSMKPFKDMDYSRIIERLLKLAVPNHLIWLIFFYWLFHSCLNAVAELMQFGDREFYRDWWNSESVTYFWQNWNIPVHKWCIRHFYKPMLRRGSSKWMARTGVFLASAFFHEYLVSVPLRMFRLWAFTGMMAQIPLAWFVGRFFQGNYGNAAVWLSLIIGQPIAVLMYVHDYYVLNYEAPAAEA
Method in brief: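 Membranes (0.2 μg/well) from insect cells expressing human flag-tagged DGAT1 incubated with 10 μM compound and 200 μM dioleoyl glycerol substrate; mercuric chloride as inhibition control. Reaction stopped with WGA SPA beads in mercuric chloride, overnight bead coupling, then scintillation proximity signal read.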

| Compound | IC50 [1] [µM] | melting point [°C] |
| --- | --- | --- |
| Cc1nc(N)c2c(n1)OC(C)(C)C(c1ccc([C@H]3CC[C@H](CNC(=O)C(O)CCO)CC3)cc1)=N2 (stereo partly drawn) [Example 2-164] | 0.01 to 0.1 | 222 to 225 |
| Cc1nc(N)c2c(n1)OC(C)(C)C(c1ccc([C@H]3CC[C@H](CN4CCC(O)C4=O)CC3)cc1)=N2 (stereo partly drawn) [Example 2-166] | 0.01 to 0.1 | 225 to 233 |
| CC1(C)Oc2ncnc(N)c2N=C1c1ccc([C@H]2CC[C@H](CCNS(C)(=O)=O)CC2)cc1 [Example 2-173] | 0.01 to 0.1 | 218 to 219 |
| CC(=O)NCC[C@H]1CC[C@H](c2ccc(C3=Nc4c(N)ncnc4OC3(C)C)cc2)CC1 [Example 2-174] | 0.01 to 0.1 | 238 to 239 |
| CC1(C)Oc2ncnc(N)c2N=C1c1ccc([C@H]2CC[C@H](CCNC(=O)CO)CC2)cc1 [Example 2-176] | 0.01 to 0.1 | 196 to 198 |
| CCCNC(=O)CC[C@H]1CC[C@H](c2ccc(C3=Nc4c(N)ncnc4OC3(C)C)cc2)CC1 [Example 2-177] | 0.01 to 0.1 | 198 to 200 |
| CN(CCO)C(=O)CC[C@H]1CC[C@H](c2ccc(C3=Nc4c(N)ncnc4OC3(C)C)cc2)CC1 [Example 2-179] | 0.01 to 0.1 | 168 to 170 |
| CC1(C)Oc2ncnc(N)c2N=C1c1ccc([C@H]2CC[C@H](CCC(=O)N3CCC(O)CC3)CC2)cc1 [Example 2-180] | 0.01 to 0.1 | 200 to 202 |
| CC1(C)Oc2ncnc(N)c2N=C1c1ccc([C@H]2CC[C@H](CCNC(=O)[C@@H]3CCCN3)CC2)cc1 [Example 2-182] | 0.01 to 0.1 | 167 to 169 |
| Cc1csc(NCC[C@H]2CC[C@H](c3ccc(C4=Nc5c(N)ncnc5OC4(C)C)cc3)CC2)n1 [Example 2-184] | 0.01 to 0.1 | > 250 |
| CCN(C)C(=O)CC[C@H]1CC[C@H](c2ccc(C3=Nc4c(N)ncnc4OC3(C)C)cc2)CC1 [Example 2-188] | 0.01 to 0.1 | 173 to 175 |
| CCN(CC)C(=O)CC[C@H]1CC[C@H](c2ccc(C3=Nc4c(N)ncnc4OC3(C)C)cc2)CC1 [Example 2-189] | 0.01 to 0.1 | 192 to 194 |

More lines, now with the values ahead:

| IC50 [1] [µM] | melting point [°C] | Compound |
| --- | --- | --- |
| 0.01 to 0.1 | 219 to 221 | Cc1nc(N)c2c(n1)OC(C)(C)C(c1ccc([C@H]3CC[C@H](CNC(N)=O)CC3)cc1)=N2 [Example 2-161] |
| 0.01 to 0.1 | 216 to 250 | Cc1nc(N)c2c(n1)OC(C)(C)C(c1ccc([C@H]3CC[C@H](CNC4=NCCO4)CC3)cc1)=N2 [Example 2-162] |
| 0.01 to 0.1 | 219 to 221 | Cc1nc(N)c2c(n1)OC(C)(C)C(c1ccc([C@H]3CC[C@H](CNC(=O)C(O)C(C)(C)CO)CC3)cc1)=N2 (stereo partly drawn) [Example 2-163] |
| 0.01 to 0.1 | > 250 | Cc1nc(N)c2c(n1)OC(C)(C)C(c1ccc([C@H]3CC[C@H](Cc4cc(O)n(C)n4)CC3)cc1)=N2 [Example 2-165] |
| 0.01 to 0.1 | > 230 | Cc1nc(N)c2c(n1)OC(C)(C)C(c1ccc([C@H]3CC[C@H](Cc4nc(=O)[nH]n4C)CC3)cc1)=N2 [Example 2-169] |
| 0.01 to 0.1 | > 250 | CC1(C)Oc2ncnc(N)c2N=C1c1ccc([C@H]2CC[C@H](CCc3cc(O)[nH]n3)CC2)cc1 [Example 2-172] |
| 0.01 to 0.1 | 230 to 231 | Cc1ccc(S(=O)(=O)NCC[C@H]2CC[C@H](c3ccc(C4=Nc5c(N)ncnc5OC4(C)C)cc3)CC2)cc1 [Example 2-175] |
| 0.01 to 0.1 | 143 to 160 | CC1(C)Oc2ncnc(N)c2N=C1c1ccc([C@H]2CC[C@H](CCC(=O)N3CCC[C@H]3CO)CC2)cc1 [Example 2-178] |
| 0.01 to 0.1 | 201 to 203 | CC1(C)Oc2ncnc(N)c2N=C1c1ccc([C@H]2CC[C@H](CCNC(=O)[C@@H]3C[C@@H](O)CN3)CC2)cc1 [Example 2-183] |
| 0.01 to 0.1 | 193 to 194 | Cc1ncc(CC[C@H]2CC[C@H](c3ccc(C4=Nc5c(N)ncnc5OC4(C)C)cc3)CC2)[nH]1 [Example 2-185] |
| 0.01 to 0.1 | 200 to 201 | CN(C)C(=O)CC[C@H]1CC[C@H](c2ccc(C3=Nc4c(N)ncnc4OC3(C)C)cc2)CC1 [Example 2-186] |
| < 0.01 | 206 to 208 | CC(C)NC(=O)CC[C@H]1CC[C@H](c2ccc(C3=Nc4c(N)ncnc4OC3(C)C)cc2)CC1 [Example 2-187] |
